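Exposure lasted 48 hours, with cells grown in 96-well plates and compounds tested at five concentrations. GI50: concentration for 50% inhibition of growth.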 Active and inactive are the calls of the source. No stated cut-off is given here; in the data, active = GI50 up to about 1.1 µM and inactive = higher. Residues, ends and D or L forms follow the SMILES beside them. *: point of attachment. OBn = c1ccc(CO*)cc1
Assays:
Assay in all cases: NCI tumour cell line growth inhibition, 48 h
LOX IMVI = tested on: LOX IMVI
UO-31 = tested on: UO-31
RPMI-8226 = tested on: RPMI-8226
SK-MEL-5 = tested on: SK-MEL-5
OVCAR-3 = tested on: OVCAR-3
NCI-H226 = tested on: NCI-H226
MCF7 = tested on: MCF7
T47D = tested on: T47D
SK-MEL-2 = tested on: SK-MEL-2
OVCAR-5 = tested on: OVCAR-5
U-251 = tested on: U-251
OVCAR-4 = tested on: OVCAR-4
HOP-62 = tested on: HOP-62
K562 = tested on: K562
MDA-N = tested on: MDA-N
CCRF-CEM = tested on: CCRF-CEM
SN12C = tested on: SN12C
A498 = tested on: A498
HL-60 = tested on: HL-60
SR = tested on: SR

Row | Structure (SMILES) | GI50 (LOX IMVI) | GI50 (UO-31) | GI50 (RPMI-8226) | GI50 (SK-MEL-5) | GI50 (OVCAR-3) | GI50 (NCI-H226) | GI50 (MCF7) | GI50 (T47D) | GI50 (SK-MEL-2) | GI50 (OVCAR-5) | GI50 (U-251) | GI50 (OVCAR-4) | GI50 (HOP-62) | GI50 (K562) | GI50 (MDA-N) | GI50 (CCRF-CEM) | GI50 (SN12C) | GI50 (A498) | GI50 (HL-60) | GI50 (SR)
1 | COc1ccc(-n2c(=O)n(C)c(=O)n2-c2c(C)c(C)c(C)c(C)c2C)cc1 | > 100 µM (inactive) | > 100 µM (inactive) | > 100 µM (inactive) | > 100 µM (inactive) | > 100 µM (inactive) | > 100 µM (inactive) | > 100 µM (inactive) | > 100 µM (inactive) | > 100 µM (inactive) | > 100 µM (inactive) | > 100 µM (inactive) | > 100 µM (inactive) | > 100 µM (inactive) | > 100 µM (inactive) | > 100 µM (inactive) | 0.148 µM (active) | > 100 µM (inactive) | > 100 µM (inactive) | – | –
2 | COc1ccc(NC2=CC(=O)C(=O)c3ccccc32)nn1 | 1.66 µM (inactive) | 2.5 µM (inactive) | 1.51 µM (inactive) | 0.643 µM (active) | 1.2 µM (inactive) | 2.31 µM (inactive) | 0.557 µM (active) | 3.4 µM (inactive) | 1.95 µM (inactive) | 1.92 µM (inactive) | 1.52 µM (inactive) | 1.41 µM (inactive) | – | 0.224 µM (active) | 0.262 µM (active) | 2.92 µM (inactive) | 1.6 µM (inactive) | 1.73 µM (inactive) | 0.273 µM (active) | –
3 | Cc1cn(C2CC(N)C(CN)O2)c(=O)[nH]c1=O (stereo not given) | – | > 100 µM (inactive) | > 100 µM (inactive) | > 100 µM (inactive) | > 100 µM (inactive) | 40.6 µM (inactive) | > 100 µM (inactive) | 37.8 µM (inactive) | > 100 µM (inactive) | > 100 µM (inactive) | > 100 µM (inactive) | > 100 µM (inactive) | > 100 µM (inactive) | > 100 µM (inactive) | 35.6 µM (inactive) | > 100 µM (inactive) | 80.7 µM (inactive) | > 100 µM (inactive) | > 100 µM (inactive) | > 100 µM (inactive)
4 | CN1CC=C(c2c(N)nc(N)[nH]c2=O)CC1 | – | > 100 µM (inactive) | > 100 µM (inactive) | > 100 µM (inactive) | > 100 µM (inactive) | > 100 µM (inactive) | > 100 µM (inactive) | > 100 µM (inactive) | > 100 µM (inactive) | > 100 µM (inactive) | > 100 µM (inactive) | > 100 µM (inactive) | > 100 µM (inactive) | > 100 µM (inactive) | > 100 µM (inactive) | > 100 µM (inactive) | > 100 µM (inactive) | > 100 µM (inactive) | > 100 µM (inactive) | > 100 µM (inactive)
5 | NC(CCC(=O)OCc1ccccc1)C(=O)NC(CCC(=O)OCc1ccccc1)C(=O)O (stereo not given) (H-Glu(OBn)-Glu(OBn)-OH; configuration not given here) | > 100 µM (inactive) | > 100 µM (inactive) | > 100 µM (inactive) | > 100 µM (inactive) | > 100 µM (inactive) | > 100 µM (inactive) | > 100 µM (inactive) | > 100 µM (inactive) | – | > 100 µM (inactive) | > 100 µM (inactive) | > 100 µM (inactive) | > 100 µM (inactive) | > 100 µM (inactive) | > 100 µM (inactive) | > 100 µM (inactive) | > 100 µM (inactive) | – | > 100 µM (inactive) | > 100 µM (inactive)
6 | COc1ccc(/C=C2\N=C(N3CCCCC3)NC2=O)cc1 | 95.1 µM (inactive) | 48.3 µM (inactive) | > 100 µM (inactive) | – | > 100 µM (inactive) | > 100 µM (inactive) | > 100 µM (inactive) | 34.5 µM (inactive) | > 100 µM (inactive) | > 100 µM (inactive) | > 100 µM (inactive) | > 100 µM (inactive) | > 100 µM (inactive) | – | 59 µM (inactive) | > 100 µM (inactive) | > 100 µM (inactive) | – | > 100 µM (inactive) | 72.1 µM (inactive)
7 | Cc1cc(=O)n2nc(CN3CCCCC3)sc2n1 | > 100 µM (inactive) | > 100 µM (inactive) | > 100 µM (inactive) | > 100 µM (inactive) | > 100 µM (inactive) | > 100 µM (inactive) | > 100 µM (inactive) | > 100 µM (inactive) | > 100 µM (inactive) | > 100 µM (inactive) | > 100 µM (inactive) | > 100 µM (inactive) | > 100 µM (inactive) | > 100 µM (inactive) | > 100 µM (inactive) | > 100 µM (inactive) | > 100 µM (inactive) | – | > 100 µM (inactive) | > 100 µM (inactive)
8 | Cc1ccc(C)c2c1n1c(=O)n(C)c(=O)n21 | > 100 µM (inactive) | > 100 µM (inactive) | > 100 µM (inactive) | > 100 µM (inactive) | > 100 µM (inactive) | > 100 µM (inactive) | > 100 µM (inactive) | > 100 µM (inactive) | > 100 µM (inactive) | > 100 µM (inactive) | > 100 µM (inactive) | > 100 µM (inactive) | – | – | > 100 µM (inactive) | > 100 µM (inactive) | > 100 µM (inactive) | > 100 µM (inactive) | > 100 µM (inactive) | –
9 | O=C1CSC(c2c[nH]c3ccccc23)N1c1ccc(Cl)cc1 (stereo not given) | – | > 100 µM (inactive) | > 100 µM (inactive) | > 100 µM (inactive) | > 100 µM (inactive) | > 100 µM (inactive) | > 100 µM (inactive) | > 100 µM (inactive) | > 100 µM (inactive) | > 100 µM (inactive) | > 100 µM (inactive) | > 100 µM (inactive) | > 100 µM (inactive) | > 100 µM (inactive) | > 100 µM (inactive) | – | > 100 µM (inactive) | > 100 µM (inactive) | > 100 µM (inactive) | –
10 | COc1cccc(C2c3cc4c(cc3OC(N3CCCC3)C2C)OCO4)c1 (stereo not given) | 5.71 µM (inactive) | 12.1 µM (inactive) | 4.85 µM (inactive) | 5.53 µM (inactive) | 7.48 µM (inactive) | – | 5.85 µM (inactive) | 5.16 µM (inactive) | 5.48 µM (inactive) | 24.9 µM (inactive) | – | – | 4.63 µM (inactive) | 2.69 µM (inactive) | 1.79 µM (inactive) | 0.513 µM (active) | 20.9 µM (inactive) | – | – | 3.82 µM (inactive)
11 | CCOC(=O)c1c(NC(=S)Nc2ccc(C)cc2)sc2c1CCN(C)C2 | – | > 100 µM (inactive) | > 100 µM (inactive) | > 100 µM (inactive) | > 100 µM (inactive) | > 100 µM (inactive) | > 100 µM (inactive) | > 100 µM (inactive) | > 100 µM (inactive) | > 100 µM (inactive) | – | – | > 100 µM (inactive) | > 100 µM (inactive) | > 100 µM (inactive) | > 100 µM (inactive) | > 100 µM (inactive) | 59 µM (inactive) | 94.6 µM (inactive) | –
12 | COc1cc(N(C)C)c(OC)cc1/C=C\c1ccnc2ccccc12 | 0.746 µM (active) | > 10 µM (inactive) | 2.71 µM (inactive) | 0.815 µM (active) | 1.72 µM (inactive) | 8.83 µM (inactive) | 0.462 µM (active) | 0.344 µM (active) | 2.66 µM (inactive) | > 10 µM (inactive) | 5.04 µM (inactive) | > 10 µM (inactive) | 4.94 µM (inactive) | 4.01 µM (inactive) | 1.71 µM (inactive) | 3.56 µM (inactive) | 6.32 µM (inactive) | 3.1 µM (inactive) | 3.7 µM (inactive) | –
13 | c1csc(-c2cc(-c3ccsc3)c(-c3ccsc3)s2)c1 | – | > 100 µM (inactive) | – | > 100 µM (inactive) | > 100 µM (inactive) | > 10 µM (inactive) | 24.8 µM (inactive) | 3.49 µM (inactive) | – | > 100 µM (inactive) | > 100 µM (inactive) | > 100 µM (inactive) | > 100 µM (inactive) | > 100 µM (inactive) | > 100 µM (inactive) | > 100 µM (inactive) | > 100 µM (inactive) | > 100 µM (inactive) | – | > 100 µM (inactive)
14 | NC(Cc1ccc(O)c(O)c1)P(=O)(O)O (stereo not given) | – | > 100 µM (inactive) | 92.7 µM (inactive) | > 100 µM (inactive) | > 100 µM (inactive) | > 100 µM (inactive) | > 10 µM (inactive) | 18 µM (inactive) | > 100 µM (inactive) | > 100 µM (inactive) | > 100 µM (inactive) | > 100 µM (inactive) | – | 19.6 µM (inactive) | > 100 µM (inactive) | 21.6 µM (inactive) | > 100 µM (inactive) | > 100 µM (inactive) | 16.2 µM (inactive) | 91.8 µM (inactive)
15 | CC1=C(C(=O)OC(C)C)C(c2ccccc2[N+](=O)[O-])C(C(=O)OC(CO[N+](=O)[O-])CO[N+](=O)[O-])=C(C)N1 (stereo not given) | 2.68 µM (inactive) | 3.56 µM (inactive) | 2.98 µM (inactive) | 2.7 µM (inactive) | 6.49 µM (inactive) | 7.16 µM (inactive) | 3.55 µM (inactive) | 4.99 µM (inactive) | 2.99 µM (inactive) | 13.8 µM (inactive) | 2.99 µM (inactive) | 2.12 µM (inactive) | 3.07 µM (inactive) | 2.81 µM (inactive) | 2.79 µM (inactive) | 2.09 µM (inactive) | 3.8 µM (inactive) | – | 6.25 µM (inactive) | 18.6 µM (inactive)

From ChEMBL document CHEMBL1201862, “PubChem BioAssay data set” (2004)
